Measurements reported in ChEMBL document CHEMBL5727898, “Compounds and their use for reducing uric acid levels” (2020).

Molecular target: Xanthine dehydrogenase/oxidase (Homo sapiens, UniProt P47989)
Experiment: xanthine oxidase activity: Xanthine oxidase inhibition was determined using a standard fluorescence-based assay for xanthine oxidase activity (McHale A, Grimes H, Coughlan M P: Int J Biochem. 10:317-9, 1979) with minor variations. […] Experiments on test compounds were performed in triplicate in multi-well plates using 10 concentrations of each compound that ranged over a 3-fold dilution.

Sequence of Xanthine dehydrogenase/oxidase (P47989 whole entry): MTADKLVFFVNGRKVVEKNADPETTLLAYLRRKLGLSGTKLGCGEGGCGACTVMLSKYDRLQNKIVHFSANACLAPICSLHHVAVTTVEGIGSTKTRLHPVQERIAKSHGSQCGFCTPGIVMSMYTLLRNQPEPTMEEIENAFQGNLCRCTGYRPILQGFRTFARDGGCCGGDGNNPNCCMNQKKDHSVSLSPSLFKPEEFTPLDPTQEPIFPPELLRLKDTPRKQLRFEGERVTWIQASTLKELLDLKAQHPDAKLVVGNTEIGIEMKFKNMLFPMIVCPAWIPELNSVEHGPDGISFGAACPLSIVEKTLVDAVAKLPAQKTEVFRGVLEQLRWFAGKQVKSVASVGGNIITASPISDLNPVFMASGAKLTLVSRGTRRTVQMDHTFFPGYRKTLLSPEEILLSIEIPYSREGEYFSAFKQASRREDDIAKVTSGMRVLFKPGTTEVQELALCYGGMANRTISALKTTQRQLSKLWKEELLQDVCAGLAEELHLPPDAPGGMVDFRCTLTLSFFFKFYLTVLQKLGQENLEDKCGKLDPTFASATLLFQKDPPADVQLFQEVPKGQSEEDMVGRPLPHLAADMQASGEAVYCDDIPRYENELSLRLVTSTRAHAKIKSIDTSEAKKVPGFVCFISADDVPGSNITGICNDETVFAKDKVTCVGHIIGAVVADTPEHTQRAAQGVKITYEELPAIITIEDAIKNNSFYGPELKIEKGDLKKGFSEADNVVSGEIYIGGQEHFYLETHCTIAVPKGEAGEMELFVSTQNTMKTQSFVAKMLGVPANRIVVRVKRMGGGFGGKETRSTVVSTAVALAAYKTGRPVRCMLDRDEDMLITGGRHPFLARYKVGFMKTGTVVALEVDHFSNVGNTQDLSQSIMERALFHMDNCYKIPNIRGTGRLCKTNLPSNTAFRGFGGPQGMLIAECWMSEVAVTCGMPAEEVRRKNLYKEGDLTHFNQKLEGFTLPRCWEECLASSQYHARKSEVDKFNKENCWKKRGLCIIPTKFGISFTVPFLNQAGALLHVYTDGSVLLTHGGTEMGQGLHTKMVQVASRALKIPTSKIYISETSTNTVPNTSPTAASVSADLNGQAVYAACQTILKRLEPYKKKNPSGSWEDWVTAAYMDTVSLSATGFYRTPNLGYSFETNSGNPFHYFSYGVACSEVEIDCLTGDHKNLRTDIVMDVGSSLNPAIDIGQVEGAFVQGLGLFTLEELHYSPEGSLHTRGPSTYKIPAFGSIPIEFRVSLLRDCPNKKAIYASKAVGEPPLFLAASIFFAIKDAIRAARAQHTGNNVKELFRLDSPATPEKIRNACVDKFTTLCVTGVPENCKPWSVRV

In the case of `O=C(O)CSc1nnc(Br)n1-c1ccc(C2CC2)c2ccccc12`, the IC50 is reported as over 300 µM.
